Laboratory results from ChEMBL document CHEMBL3132854, “Synthesis and anticancer activity evaluation of resveratrolchalcone conjugates” (2014).

Experiments:
[1] = test system: 786-0; assay: Growth inhibition of human 786-0 cells assessed as cell growth at 10 uM by sulforhodamine B assay relative to control; values are per cent of control
[2] = test system: Malme-3M; assay: Growth inhibition of human MALME-3M cells assessed as cell growth at 10 uM by sulforhodamine B assay relative to control; values are per cent of control
[3] = test system: HCT-15; assay: Growth inhibition of human HCT15 cells assessed as cell growth at 10 uM by sulforhodamine B assay relative to control; values are per cent of control
[4] = test system: MDA-MB-435; assay: Growth inhibition of human MDA-MB-435 cells assessed as cell growth at 10 uM by sulforhodamine B assay relative to control; values are per cent of control
[5] = Growth inhibition of human OVCAR4 cells assessed as cell growth at 10 uM by sulforhodamine B assay relative to control; values are per cent of control; conditions: OVCAR-4
[6] = test system: MDA-MB-468; assay: Growth inhibition of human MDA-MB-468 cells assessed as cell growth at 10 uM by sulforhodamine B assay relative to control; values are per cent of control
[7] = test system: COLO 205; assay: Growth inhibition of human COLO205 cells assessed as cell growth at 10 uM by sulforhodamine B assay relative to control; values are per cent of control
[8] = test system: NCI-H23; assay: Growth inhibition of human NCI-H23 cells assessed as cell growth at 10 uM by sulforhodamine B assay relative to control; values are per cent of control
[9] = test system: M14; assay: Growth inhibition of human M14 cells assessed as cell growth at 10 uM by sulforhodamine B assay relative to control; values are per cent of control
[10] = test system: OVCAR-8; assay: Growth inhibition of human OVCAR8 cells assessed as cell growth at 10 uM by sulforhodamine B assay relative to control; values are per cent of control
[11] = test system: SK-MEL-2; assay: Growth inhibition of human SK-MEL-2 cells assessed as cell growth at 10 uM by sulforhodamine B assay relative to control; values are per cent of control
[12] = test system: SN12C; assay: Growth inhibition of human SN12C cells assessed as cell growth at 10 uM by sulforhodamine B assay relative to control; values are per cent of control
[13] = test system: SR; assay: Growth inhibition of human SR cells assessed as cell growth at 10 uM by sulforhodamine B assay relative to control; values are per cent of control
[14] = test system: LOX IMVI; assay: Growth inhibition of human LOXIMVI cells assessed as cell growth at 10 uM by sulforhodamine B assay relative to control; values are per cent of control
[15] = test system: HL-60(TB); assay: Growth inhibition of human HL-60(TB) cells assessed as cell growth at 10 uM by sulforhodamine B assay relative to control; type: functional; conditions: values are per cent of control
[16] = test system: SF-295; assay: Growth inhibition of human SF295 cells assessed as cell growth at 10 uM by sulforhodamine B assay relative to control; values are per cent of control
[17] = test system: NCI-H522; assay: Growth inhibition of human NCI-H522 cells assessed as cell growth at 10 uM by sulforhodamine B assay relative to control; values are per cent of control
[18] = test system: SNB-19; assay: Growth inhibition of human SNB19 cells assessed as cell growth at 10 uM by sulforhodamine B assay relative to control; values are per cent of control
[19] = test system: T47D; assay: Growth inhibition of human T47D cells assessed as cell growth at 10 uM by sulforhodamine B assay relative to control; values are per cent of control
[20] = Growth inhibition of human NCI-ADR-RES cells assessed as cell growth at 10 uM by sulforhodamine B assay relative to control; values are per cent of control
[21] = test system: MOLT-4; assay: Growth inhibition of human MOLT4 cells assessed as cell growth at 10 uM by sulforhodamine B assay relative to control; values are per cent of control
[22] = test system: HCT-116; assay: Growth inhibition of human HCT116 cells assessed as cell growth at 10 uM by sulforhodamine B assay relative to control; values are per cent of control
[23] = test system: SK-OV-3; assay: Growth inhibition of human SKOV3 cells assessed as cell growth at 10 uM by sulforhodamine B assay relative to control; values are per cent of control
[24] = Growth inhibition of human HOP92 cells assessed as cell growth at 10 uM by sulforhodamine B assay relative to control; values are per cent of control; conditions: HOP-92
[25] = Growth inhibition of human HCC2998 cells assessed as cell growth at 10 uM by sulforhodamine B assay relative to control; values are per cent of control; conditions: HCC 2998
[26] = test system: SK-MEL-5; assay: Growth inhibition of human SK-MEL-5 cells assessed as cell growth at 10 uM by sulforhodamine B assay relative to control; values are per cent of control
[27] = test system: MCF7; assay: Growth inhibition of human MCF7 cells assessed as cell growth at 10 uM by sulforhodamine B assay relative to control; values are per cent of control
[28] = test system: NCI-H322M; assay: Growth inhibition of human NCI-H322M cells assessed as cell growth at 10 uM by sulforhodamine B assay relative to control; values are per cent of control
[29] = test system: SW-620; assay: Growth inhibition of human SW620 cells assessed as cell growth at 10 uM by sulforhodamine B assay relative to control; values are per cent of control
[30] = Growth inhibition of human SF539 cells assessed as cell growth at 10 uM by sulforhodamine B assay relative to control; values are per cent of control; conditions: SF-539
[31] = test system: HT-29; assay: Growth inhibition of human HT-29 cells assessed as cell growth at 10 uM by sulforhodamine B assay relative to control; values are per cent of control

Work on `COc1ccc(C(=O)/C=C/c2ccc(/C=C/c3cc(OC)c(OC)c(OC)c3)cc2)cc1` yielded a growth, % of control at 10 µM [1] of 67.8%, a growth, % of control at 10 µM [2] of 66.8% and a growth, % of control at 10 µM [3] of 33.6%. For the same molecule, the growth, % of control at 10 µM [4] was 41%, the growth, % of control at 10 µM [5] was 65.7% and the growth, % of control at 10 µM [6] was 51.9%. For the same molecule, the growth, % of control at 10 µM [7] was 68.2%, the growth, % of control at 10 µM [8] was 43.5% and the growth, % of control at 10 µM [9] was 67%. For the same molecule, the growth, % of control at 10 µM [10] was 28.4%, the growth, % of control at 10 µM [11] was 65.1% and the growth, % of control at 10 µM [12] was 56.7%. For the same molecule, the growth, % of control at 10 µM [13] was 9.61%, the growth, % of control at 10 µM [14] was 24.7% and the growth, % of control at 10 µM [15] was 21.5%. For the same molecule, the growth, % of control at 10 µM [16] was 57.9%, the growth, % of control at 10 µM [17] was 5.55% and the growth, % of control at 10 µM [18] was 74.4%. The growth, % of control at 10 µM [19] was 43.4%, the growth, % of control at 10 µM [20] was 50% and the growth, % of control at 10 µM [21] was 9.62%. The growth, % of control at 10 µM [22] was 17.5%, the growth, % of control at 10 µM [23] was 102% and the growth, % of control at 10 µM [24] was 51.9%. For the same molecule, the growth, % of control at 10 µM [25] was 94.1%, the growth, % of control at 10 µM [26] was 62% and the growth, % of control at 10 µM [27] was 30.6%. For the same molecule, the growth, % of control at 10 µM [28] was 64.8%, the growth, % of control at 10 µM [29] was 39.3% and the growth, % of control at 10 µM [30] was 86.3%. It also gave a growth, % of control at 10 µM [31] of 36.2%.

Molecule `COc1ccc(C(=O)/C=C/c2ccc(/C=C/c3ccc(F)cc3)cc2)cc1` has a growth, % of control at 10 µM [1] of 95.3%, a growth, % of control at 10 µM [2] of 99.9% and a growth, % of control at 10 µM [3] of 102%. For the same molecule, the growth, % of control at 10 µM [4] was 98.9%, the growth, % of control at 10 µM [5] was 115% and the growth, % of control at 10 µM [6] was 112%. The growth, % of control at 10 µM [7] was 107%, the growth, % of control at 10 µM [8] was 98.1% and the growth, % of control at 10 µM [9] was 95.2%. The growth, % of control at 10 µM [10] was 106%, the growth, % of control at 10 µM [11] was 96.2% and the growth, % of control at 10 µM [12] was 102%. It also gave a growth, % of control at 10 µM [13] of 91%, a growth, % of control at 10 µM [14] of 97.4% and a growth, % of control at 10 µM [15] of 101%. The growth, % of control at 10 µM [16] was 94.9%, the growth, % of control at 10 µM [17] was 84% and the growth, % of control at 10 µM [18] was 100%. It also gave a growth, % of control at 10 µM [19] of 93.8%, a growth, % of control at 10 µM [20] of 96.1% and a growth, % of control at 10 µM [21] of 96.2%. The growth, % of control at 10 µM [22] was 95.8%, the growth, % of control at 10 µM [23] was 99.1% and the growth, % of control at 10 µM [24] was 108%. The growth, % of control at 10 µM [25] was 94.1%, the growth, % of control at 10 µM [26] was 104% and the growth, % of control at 10 µM [27] was 93.9%. For the same molecule, the growth, % of control at 10 µM [28] was 99.6%, the growth, % of control at 10 µM [29] was 104% and the growth, % of control at 10 µM [30] was 108%. The growth, % of control at 10 µM [31] was 104%.

Work on `COc1ccc(/C=C/c2ccc(/C=C/C(=O)c3ccc(Cl)cc3)cc2)cc1` yielded a growth, % of control at 10 µM [1] of 91%, a growth, % of control at 10 µM [2] of 103% and a growth, % of control at 10 µM [3] of 101%. It also gave a growth, % of control at 10 µM [4] of 95.3%, a growth, % of control at 10 µM [5] of 102% and a growth, % of control at 10 µM [6] of 113%. The growth, % of control at 10 µM [7] was 111%, the growth, % of control at 10 µM [8] was 100% and the growth, % of control at 10 µM [9] was 104%. For the same molecule, the growth, % of control at 10 µM [10] was 109%, the growth, % of control at 10 µM [11] was 101% and the growth, % of control at 10 µM [12] was 99.8%. For the same molecule, the growth, % of control at 10 µM [13] was 82.4%, the growth, % of control at 10 µM [14] was 95% and the growth, % of control at 10 µM [15] was 92.2%. It also gave a growth, % of control at 10 µM [16] of 87%, a growth, % of control at 10 µM [17] of 106% and a growth, % of control at 10 µM [18] of 97.5%. The growth, % of control at 10 µM [19] was 83.4%, the growth, % of control at 10 µM [20] was 109% and the growth, % of control at 10 µM [21] was 92.5%. For the same molecule, the growth, % of control at 10 µM [22] was 93.3%, the growth, % of control at 10 µM [23] was 102% and the growth, % of control at 10 µM [24] was 98.5%. The growth, % of control at 10 µM [25] was 99.9%, the growth, % of control at 10 µM [26] was 107% and the growth, % of control at 10 µM [27] was 89.5%. For the same molecule, the growth, % of control at 10 µM [28] was 97%, the growth, % of control at 10 µM [29] was 102% and the growth, % of control at 10 µM [30] was 109%. For the same molecule, the growth, % of control at 10 µM [31] was 93%.

`COc1ccc(C(=O)/C=C/c2ccc(/C=C/c3ccc(Cl)cc3)cc2)cc1` showed a growth, % of control at 10 µM [1] of 94%, a growth, % of control at 10 µM [2] of 87.4% and a growth, % of control at 10 µM [3] of 90.1%. For the same molecule, the growth, % of control at 10 µM [4] was 103%, the growth, % of control at 10 µM [5] was 107% and the growth, % of control at 10 µM [6] was 110%. It also gave a growth, % of control at 10 µM [7] of 107%, a growth, % of control at 10 µM [8] of 103% and a growth, % of control at 10 µM [9] of 101%. For the same molecule, the growth, % of control at 10 µM [10] was 104%, the growth, % of control at 10 µM [11] was 106% and the growth, % of control at 10 µM [12] was 97.4%. The growth, % of control at 10 µM [13] was 85.6%, the growth, % of control at 10 µM [14] was 105% and the growth, % of control at 10 µM [15] was 94.4%. The growth, % of control at 10 µM [16] was 96.5%, the growth, % of control at 10 µM [17] was 125% and the growth, % of control at 10 µM [18] was 97.6%. For the same molecule, the growth, % of control at 10 µM [19] was 81.6%, the growth, % of control at 10 µM [20] was 111% and the growth, % of control at 10 µM [21] was 92.6%. It also gave a growth, % of control at 10 µM [22] of 97.5%, a growth, % of control at 10 µM [23] of 99.3% and a growth, % of control at 10 µM [24] of 102%. It also gave a growth, % of control at 10 µM [25] of 105%, a growth, % of control at 10 µM [26] of 106% and a growth, % of control at 10 µM [27] of 93%. The growth, % of control at 10 µM [28] was 76.6%, the growth, % of control at 10 µM [29] was 99.8% and the growth, % of control at 10 µM [30] was 99.9%. For the same molecule, the growth, % of control at 10 µM [31] was 104%.
